Experimental findings from ChEMBL document CHEMBL1150896, “Arenarins A-C: new cytotoxic fungal metabolites from the sclerotia of aspergillus arenarius” (1998) are described below.

Common to all, as to type: functional
Test [1] concerns Carpophilus. Briefly: Reduction of feeding rate in adult Carpophilus hemipterus at 100 ppm dietary level relative to control. Further details: scale not given: the % may be the effect or the level left.
Test [2] can be described thus: Cytotoxicity against human NCI60 cells.
The subject of test [3] is Carpophilus. The test can be described thus: Reduction of feeding rate in Carpophilus hemipterus larvae at 100 ppm dietary level relative to control. Further details: scale not given: the % may be the effect or the level left.

Values after ≈ are worked out from the molar mass of the structure shown.

For `COc1c(-c2ccc(O)cc2)c(O)cc2c1oc1cc(O)c(OCC=C(C)C)cc12` [ARENARIN A], the Activity in test [1] and in test [3] was 13% in each case. For the same molecule, in test [2], the GI50 (commonly the concentration that inhibits growth by half) is 4.8 µg/mL (≈ 11.8 µM).

`C=C(C)C1Cc2c(ccc(OC)c2OC/C=C(\C)CO)C2=C1C(=O)C(c1ccc(O)cc1)=C(OC)C2=O` (stereo unspecified) [ARENARIN C] registered an Activity in test [1] of 13%.

With `C=C(C)C1Cc2c(ccc(O)c2OC/C=C(\C)CO)C2=C1C(=O)C(c1ccc(O)cc1)=C(OC)C2=O` (stereo unspecified) [ARENARIN B], the Activity in test [1] is reported as 20%. In test [2], this molecule showed a GI50 of 3.8 µg/mL (≈ 7.78 µM).
